Measurements as given in patent US20180206498A1, “SUBSTITUTED HETEROARYL CARBOXYLIC ACID HYDRAZIDES OR SALTS THEREOF AND USE THEREOF TO INCREASE STRESS TOLERANCE IN PLANTS” (Bayer CropScience Aktiengesellschaft, priority 2015, published 2018).

What follows are molecules tested on Brassica napus (assay: Drought stress in vivo analysis Part B, appearance vs stressed control plants in categories). Details: spray 25 g/ha.
Set-up: key: 0: no positive effect; +: slight positive effect; ++: clear positive effect; +++: strong positive effect
Procedure: (§1) Seeds of monocotyledonous and dicotyledonous crop plants were sown in sandy loam in plastic pots, covered with soil or sand and cultivated in a greenhouse under good growth conditions. The test plants are treated at the early leaf stage (BBCH10-BBCH13). To assure uniform water supply before commencement of stress, the potted plants were supplied with water by dam irrigation prior to substance application. The inventive compounds were first formulated as wettable powders (WP) or dissolved in a solvent mixture. The further dilution was effected with water supplemented with 0.2% wetting agent (e.g. agrotin). The finished spray liquor was sprayed onto the green parts of the plant at an equivalent water application rate of 600 I/ha. Substance application was followed immediately by stress treatment of the plants. Drought Stress was Induced by Gradual Drying Out Under the Following Conditions: “Day”: 14 hours with illumination at […]-30° C. “Night”: 10 hours without illumination at 18-20° C. The duration of the respective stress phases was guided mainly by the condition of the stressed control plants. It was ended (by re-irrigating and transfer to a greenhouse with good growth conditions) as soon as irreversible damage was observed on the stressed control plants. The end of the stress phase was followed by an about 4-7-day recovery phase, during which the plants were once again kept under good growth conditions in a greenhouse. The duration of the recovery phase was guided mainly by when the trial plants had attained a state which enabled visual scoring of potential effects, and was therefore variable. Once this juncture had been reached, the appearance of the plants treated with test substances was recorded in comparison to the stressed control plants by the following categories: [table] In order to rule out any influence on the effects observed by any fungicidal or insecticidal action of the test compounds, it was additionally ensured that the tests proceeded without fungal infection or insect infestation. The values reported in tables B-1 and […] below are mean values of the results from at least three repeats. Effects of selected compounds of the general formula (I) under drought stress according to the following tables B-1 and B-2: BRSNS=Brassica napus ZEAMX=Zea mays TRZAS=Triticum aestivum

Row | Compound | Effect (BRSNS)
1 | O=C(c1cnsn1)N(Cc1ccccc1F)N1CCCC1 [Compound H2-11] | +
2 | CN(C)N(Cc1cccc(Cl)c1Cl)C(=O)c1sc(Cl)nc1Cl [Compound D6-4] | +
3 | CN(C)N(Cc1ccc(Cl)cc1)C(=O)c1cnsn1 [Compound H1-3] | +
4 | CN(C)N(Cc1ccc(F)cc1F)C(=O)c1c(C(F)(F)F)nn(C)c1Cl [Compound A1-15] | ++
5 | Cc1nc(-c2cccnc2)sc1C(=O)N(Cc1ccccc1Cl)N(C)C [Compound D1-1] | +
6 | CN(C)N(Cc1ccc(Cl)nc1)C(=O)c1ccns1 [Compound G8-94] | +
7 | CN(C)N(Cc1ccccc1F)C(=O)c1ccns1 [Compound G8-11] | +
8 | CN(C)N(Cc1ccccn1)C(=O)c1cnsn1 [Compound H1-21] | +
9 | Cc1nc(-c2cccnc2)sc1C(=O)N(Cc1ccccn1)N1CCCC1 [Compound D2-21] | +
10 | CN(C)N(Cc1cccc(Cl)c1)C(=O)c1snc(N)c1Cl [Compound G1-2] | +
11 | CN(C)N(Cc1ccccc1Cl)C(=O)c1sc(Cl)nc1Cl [Compound D6-1] | +

Same assay, conditions: spray 250 g/ha

Row | Compound | Effect (BRSNS)
12 | CN(C)N(Cc1ccc(Cl)nc1)C(=O)c1cc(OCc2ccccc2)ns1 [Compound G10-94] | ++
13 | CC(C)c1nnsc1C(=O)N(Cc1cccc(Cl)c1Cl)N(C)C [Compound F2-4] | +
14 | CN(C)N(Cc1cccc(Cl)c1Cl)C(=O)c1cc(OCc2ccccc2)ns1 [Compound G10-4] | +
15 | CN(C)N(Cc1nccc(Cl)c1Cl)C(=O)c1ccsc1C(F)F [Compound B3-40] | +
16 | CN(C)N(Cc1ccccc1F)C(=O)c1sc(Cl)nc1Cl [Compound D6-11] | +
17 | CN(C(=O)OC(C)(C)C)N(Cc1ccccc1Cl)C(=O)c1c(C(F)F)nn(C)c1F [Compound A13-1] | ++
18 | Cc1nnsc1C(=O)N(Cc1cccc(Cl)c1Cl)N(C)C [Compound F1-4] | +
19 | CN(C)N(Cc1cccc(Cl)c1Cl)C(=O)c1snc(Cl)c1Cl [Compound E1-4] | +
20 | O=C(c1ccns1)N(Cc1cccc(Cl)c1Cl)N1CCCC1 [Compound G9-4] | ++
21 | CN(C)N(Cc1ccccc1F)C(=O)c1cnsn1 [Compound H1-11] | +
22 | Cn1cc(C(=O)N(Cc2ccccc2Cl)N2CCCC2)c(C(F)F)n1 [Compound A20-1] | +
23 | CC(C)c1nnsc1C(=O)N(Cc1nccc(Cl)c1Cl)N(C)C [Compound F2-40] | +
24 | O=C(c1cnsn1)N(Cc1ncc(C(F)(F)F)cc1Cl)N1CCCC1 [Compound H2-36] | ++
25 | CCN(CC)N(Cc1ccccc1C#N)C(=O)c1snc(Cl)c1Cl [Compound E2-61] | +
26 | Cc1nnsc1C(=O)N(Cc1ccc(Cl)nc1)N(C)C [Compound F1-94] | +

Each molecule was assayed on Triticum aestivum in the same assay as above. Details: spray 25 g/ha.
Set-up: key: 0: no positive effect; +: slight positive effect; ++: clear positive effect; +++: strong positive effect
Procedure: as §1

Row | Compound | Effect (TRZAS)
27 | CN(C)N(Cc1ccc(Cl)nc1)C(=O)c1cc(OCc2ccccc2)ns1 [Compound G10-94] | +
28 | CN(C)N(Cc1cccc(Cl)c1Cl)C(=O)c1cn(C)nc1C(F)(F)F [Compound A4-4, N-(2,3-dichlorobenzyl)-N′,N′, 1-trimethyl-3-(trifluoromethyl)-1H-pyrazole-4-carbohydrazide] | +
29 | CN(C)N(Cc1ccccn1)C(=O)c1cc(OCc2ccccc2)ns1 [Compound G10-21] | +
30 | CN(C)N(Cc1ccccc1F)C(=O)c1sc(Cl)nc1Cl [Compound D6-11] | +
31 | Cn1nc(C(F)F)c(C(=O)N(Cc2ccccc2C#N)N2CCCC2)c1Cl [Compound A18-61] | +
32 | CN(C)N(Cc1cccc(Cl)c1Cl)C(=O)c1sc(Cl)nc1Cl [Compound D6-4] | +
33 | CN(C)N(Cc1ccccc1Cl)C(=O)c1snc(N)c1Cl [Compound G1-1] | +
34 | CN(C)N(Cc1ccc(Cl)cc1)C(=O)c1cnsn1 [Compound H1-3] | +
35 | O=C(c1ccns1)N(Cc1cccc(Cl)c1Cl)N1CCCC1 [Compound G9-4] | ++
36 | CN(C)N(Cc1ccccc1C#N)C(=O)c1cn(C)nc1C(F)(F)F [Compound A4-61] | +
37 | CC(Cc1ccccc1)N(C(=O)c1snc(Cl)c1Cl)N(C)C (stereo not drawn) [Compound E1-351] | +
38 | CN(C)N(Cc1ccc(F)cc1F)C(=O)c1c(C(F)(F)F)nn(C)c1Cl [Compound A1-15] | +
39 | CC(C)c1nnsc1C(=O)N(Cc1ccc(Cl)nc1)N(C)C [Compound F2-94] | +
40 | CCc1sccc1C(=O)N(Cc1ccccc1Cl)N(C)C [Compound B4-1] | +
41 | CCc1sccc1C(=O)N(Cc1ccccc1C#N)N(C)C [Compound B4-61] | +
42 | CN(C)N(Cc1ccc(Cl)nc1)C(=O)c1snc(Cl)c1Cl [Compound E1-94] | +
43 | CN(C)N(Cc1ccc(Cl)nc1)C(=O)c1ccns1 [Compound G8-94] | ++
44 | CCc1sccc1C(=O)N(Cc1ccccn1)N(C)C [Compound B4-21] | +
45 | CN(C)N(Cc1ccccc1Cl)C(=O)c1cn(C)nc1C(F)F [Compound A8-1] | +
46 | Cc1nc(-c2cccnc2)sc1C(=O)N(Cc1ccccc1C#N)N(C)C [Compound D1-61] | +
47 | Cc1nc(-c2cccnc2)sc1C(=O)N(Cc1ccccc1C#N)N1CCCC1 [Compound D2-61] | +
48 | CN(C(=O)OC(C)(C)C)N(CCc1ccc(Cl)cc1Cl)C(=O)c1c(C(F)F)nn(C)c1Cl [Compound A14-615] | +
49 | CN(C(=O)OC(C)(C)C)N(Cc1ccccc1Cl)C(=O)c1c(C(F)F)nn(C)c1Cl [Compound A14-1] | +
50 | CN(C(=O)OC(C)(C)C)N(Cc1ccc(Cl)cc1Cl)C(=O)c1c(C(F)F)nn(C)c1F [Compound A13-5] | +
51 | O=C(c1cnsn1)N(Cc1ccc(F)cc1F)N1CCCC1 [Compound H2-15] | ++
52 | N#Cc1ccccc1CN(C(=O)c1snc(Cl)c1Cl)N1CCCC1 [Compound E5-61] | +
53 | CN(C)N(Cc1ccccn1)C(=O)c1ccsc1C(F)F [Compound B3-21] | +

Same assay, conditions: spray 250 g/ha

Row | Compound | Effect (TRZAS)
54 | Cn1cc(C(=O)N(Cc2ccccc2C#N)N2CCCC2)c(C(F)F)n1 [Compound A20-61] | +
55 | CN(C)N(Cc1ccccc1F)C(=O)c1cc(OCc2ccccc2)ns1 [Compound G10-11] | +
56 | O=C(c1cnsn1)N(Cc1ccc(Cl)cc1)N1CCCC1 [Compound H2-3] | +
57 | CCn1nc(C(F)F)c(C(=O)N(Cc2cccnc2C#N)N2CCCC2)c1F [Compound A24-679] | +
58 | O=C(c1cnsn1)N(Cc1ccccc1F)N1CCCC1 [Compound H2-11] | +
59 | CN(C)N(Cc1ccccc1C#N)C(=O)c1snc(Cl)c1Cl [Compound E1-61] | +
60 | CCn1nc(C(F)F)c(C(=O)N(Cc2ccccc2C#N)N(C)C)c1F [Compound A7-61] | ++
61 | CN(C)N(Cc1ccccn1)C(=O)c1sc(Cl)nc1Cl [Compound D6-21] | +
62 | CN(C)N(Cc1ccccc1C#N)C(=O)c1ccsc1C(F)F [Compound B3-61, N-(2-Cyanobenzyl)-2-(difluoromethyl)-N′,N′-dimethylthiophene-3-carbohydrazide] | +
63 | Cc1nnsc1C(=O)N(Cc1cccc(Cl)c1Cl)N(C)C [Compound F1-4] | +
64 | CN(C)N(Cc1ccccc1Cl)C(=O)c1snc(Cl)c1Cl [Compound E1-1] | +
65 | Cc1nnsc1C(=O)N(Cc1ccccc1C#N)N(C)C [Compound F1-61] | +
66 | CN(C)N(Cc1ncc(C(F)(F)F)cc1Cl)C(=O)c1sc(Cl)nc1Cl [Compound D6-36] | +
67 | CN(C)N(Cc1ccccc1F)C(=O)c1cnsn1 [Compound H1-11] | +
68 | Cc1nc(-c2cccnc2)sc1C(=O)N(Cc1ccccc1Cl)N(C)C [Compound D1-1] | +
69 | O=C(c1ccns1)N(Cc1ccc(Cl)nc1)N1CCCC1 [Compound G9-94] | ++
70 | CC(C)c1nnsc1C(=O)N(Cc1ccccc1Cl)N(C)C [Compound F2-1, N-(2-Chlorobenzyl)-4-isopropyl-N′,N′-dimethyl-1,2,3-thiadiazole-5-carbohydrazide] | +
71 | O=C(c1ccns1)N(Cc1ccc(F)cc1F)N1CCCC1 [Compound G9-15] | +
72 | N#Cc1ccccc1CN(C(=O)c1cnsn1)N1CCCC1 [Compound H2-61] | +
73 | CN(C)N(Cc1ncc(C(F)(F)F)cc1Cl)C(=O)c1ccns1 [Compound G8-36] | ++
74 | CN(C)N(Cc1ncc(C(F)(F)F)cc1Cl)C(=O)c1cc(OCc2ccccc2)ns1 [Compound G10-36] | ++
75 | O=C(c1cnsn1)N(Cc1ccccc1Cl)N1CCCC1 [Compound H2-1] | +
76 | Cc1c(OCc2ccccc2)nsc1C(=O)N(Cc1ncc(C(F)(F)F)cc1Cl)N(C)C [Compound G11-36] | ++
77 | Cc1nc(-c2cccnc2)sc1C(=O)N(Cc1cccc(Cl)c1Cl)N(C)C [Compound D1-4] | +
78 | CN(C)N(Cc1ccccc1C#N)C(=O)c1cc(OCc2ccccc2)ns1 [Compound G10-61] | +
79 | CN(C)N(Cc1ccc(Cl)nc1)C(=O)c1sc(Cl)nc1Cl [Compound D6-94] | +
80 | Cc1occc1C(=O)N(Cc1ccccc1C#N)N(C)C [Compound C3-61] | +
81 | CN(C)N(Cc1ccc(Cl)cc1)C(=O)c1snc(Cl)c1Cl [Compound E1-3] | +
